Experimental data: patent US10544154B2, “Opioid receptor antagonist prodrugs” (Nirsum Laboratories, Inc., priority 2017, dated 2020)

Assay: Clinical observations for dogs in pharmacokinetic studies
Assay type: in vivo, Beagle dogs
Settings: 48 mg/kg
Procedure: Weight monitoring was done every week.
The dose formulation (concentration—400 mg base equivalents/ml in sesame oil+1% benzyl alcohol, unless otherwise specified) was administered via deep intramuscularly (unless otherwise specified). The injection vehicle was also dosed via deep intramuscular route (unless otherwise specified) on contralateral site of each animal at study initiation. The animals were sedated with Propofol at 6 mg/kg via IV administration. Following sedation hair was carefully removed from around the injection site and the area gently cleaned. Care will be taken to avoid irritating skin during shaving and cleaning the injection site. Then dogs will be dosed with deep IM administration. At least 2.5 cm depth from the surface into the central aspect of the quadriceps or biceps femoris muscle, by angling the needle toward the femur. If the needle hits the femur, simply draws back slightly and then inject. The dose volume will be determined by the animals' body weight collected on the morning of dosing day. For repeated administration, the injection sites may be rotated to minimize tissue injury.

Structure (SMILES): C=C1CC[C@@]2(O)C3Cc4ccc(OC(=O)OCCCCCCCCCCC)c5c4[C@@]2(CCN3CC2CC2)[C@H]1O5 [Compound 3, (4aS,7aS,12bS)-3-(cyclopropylmethyl)-4a-hydroxy-7-methylene-2,3,4,4a,5,6,7,7a-octahydro-1H-4,12-methanobenzofuro[3,2-e]isoquinolin-9-yl undecyl carbonate]
- BT (dog D1001, Day 1): cm/BT: 39.2° C./
- BT (dog D1001, Day 2): 38.9 °C
- BT (dog D1001, Day 3): 39.1 °C
- BT (dog D1001, Day 4): 38.5 °C
- BT (dog D1001, Day 5): 38.6 °C
- BT (dog D1001, Day 6): 38.4 °C
- BT (dog D1001, Day 7): 38.4 °C
- BT (dog D1001, Day 8): 38.7 °C
- BT (dog D1001, Day 9): 38.7 °C
- BT (dog D1001, Day 10): 38.4 °C
- BT (dog D1001, Day 11): 38.8 °C
- BT (dog D1001, Day 12): 38.0 °C
- BT (dog D1001, Day 13): 38.4 °C
- BT (dog D1001, Day 15): 37.8 °C
- BT (dog D1001, Day 17): BT: 38.3 °C
- BT (dog D1001, Day 18): BT: 38.4 °C
- BT (dog D1001, Day 19): BT: 38.3 °C
- BT (dog D1001, Day 20): BT: 37.9 °C
- BT (dog D1001, Day 21): BT: 38.6 °C
- BT (dog D1001, Day 22): BT: 38.8 °C
- BT (dog D1001, Day 23): BT: 38.3 °C
- BT (dog D1001, Day 24): BT: 38.5 °C
- BT (dog D1001, Day 25): BT: 38.4 °C
- BT (dog D1001, Day 26): BT: 38.2 °C
- BT (dog D1001, Day 27): BT: 38.4 °C
- BT (dog D1002, Day 1): 39.1 °C
- BT (dog D1002, Day 2): 39.3 °C
- BT (dog D1002, Day 3): 39.3 °C
- BT (dog D1002, Day 4): 38.5 °C
- BT (dog D1002, Day 5): 38.7 °C
- BT (dog D1002, Day 6): 38.8 °C
- BT (dog D1002, Day 7): 38.6 °C
- BT (dog D1002, Day 8): 38.7 °C
- BT (dog D1002, Day 9): 38.3 °C
- BT (dog D1002, Day 10): calf/BT: 38.3 °C
- BT (dog D1002, Day 11): 38.9 °C
- BT (dog D1002, Day 12): 38.5 °C
- BT (dog D1002, Day 13): 38.8 °C
- BT (dog D1002, Day 14): 38.3 °C
- BT (dog D1002, Day 15): 37.8 °C
- BT (dog D1002, Day 17): 38.7 °C
- BT (dog D1002, Day 18): 38.8 °C
- BT (dog D1002, Day 19): 38.7 °C
- BT (dog D1002, Day 20): 38.6 °C
- BT (dog D1002, Day 21): BT: 38.5 °C
- BT (dog D1002, Day 22): BT: 39.3 °C
- BT (dog D1002, Day 23): BT: 38.8 °C
- BT (dog D1002, Day 24): BT: 39.1 °C
- BT (dog D1002, Day 25): BT: 38.6 °C
- BT (dog D1002, Day 26): BT: 38.6 °C
- BT (dog D1002, Day 27): cm/BT: 38.6 °C
- Clinical observation, R-TA (dog D1003, 8 hr): Swelling 4 * 3
- BT (dog D1003, Day 1): side/BT: 39.6 °C
- BT (dog D1003, Day 2): side/BT: 39.7 °C
- BT (dog D1003, Day 3): 39.2 °C
- BT (dog D1003, Day 4): site/BT: 38.7 °C
- BT (dog D1003, Day 5): 39.0 °C
- BT (dog D1003, Day 6): 39.2 °C
- BT (dog D1003, Day 7): 39.5 °C
- BT (dog D1003, Day 8): 39.4 °C
- BT (dog D1003, Day 9): 38.8 °C
- BT (dog D1003, Day 10): 38.9 °C
- BT (dog D1003, Day 11): swelling/BT: 39.4 °C
- BT (dog D1003, Day 12): swelling/BT: 39.3 °C
- BT (dog D1003, Day 13): swelling/BT: 39.9 °C
- BT (dog D1003, Day 15): swelling/BT: 39.4 °C
- BT (dog D1003, Day 17): swelling/BT: 39.5 °C
- BT (dog D1003, Day 18): swelling/BT: 39.5 °C
- BT (dog D1003, Day 19): swelling/BT: 39.4 °C
- BT (dog D1003, Day 21): swelling/BT: 39.3 °C
- BT (dog D1003, Day 22): swelling/BT: 39.9 °C
- BT (dog D1003, Day 24): BT: 39.5 °C
- BT (dog D1003, Day 25): BT: 39.8 °C
- BT (dog D1003, Day 26): BT: 39.3 °C
- BT (dog D1003, Day 27): BT: 38.9 °C
